Data reported in patent US8993542B2, “Methods of treating viral infections” (priority 2008, dated 2015).

System: HIV-1IIIB
Assay: Two-drug combination antiviral assay in CEM cells (CPE), MacSynergy II
Format: cell-based
Settings: for Antagonism Volume, Result 1 / Antagonism Volume, Result 2 / Antagonism Volume, Result 3 / Mean Antagonism Volume (n = 3) / Mean Synergy Volume (n = 3) / Synergy Volume, Result 1 / Synergy Volume, Result 2 / Synergy Volume, Result 3: in combination with CMX157, CEM-SS cells, 95% confidence; for Interpretation of Antiviral Results (MacSynergy): two-drug combination (with CMX157; control d4T/RBV), CEM-SS cells

Q: With `Cc1cccc(C)c1OCC(=O)N[C@@H](Cc1ccccc1)[C@@H](O)C[C@H](Cc1ccccc1)NC(=O)[C@H](C(C)C)N1CCCNC1=O` [Lopinavir (LPV), lopinavir] as the compound, how does the “Antagonism Volume, Result 1” value read?
A: −0.31 nM^2 %, μM^2 % or nMμM %

Q: What about the “Antagonism Volume, Result 2” value of the same compound?
A: 0 nM^2 %, μM^2 % or nMμM %

Q: And the “Antagonism Volume, Result 3” value?
A: −0.12 nM^2 %, μM^2 % or nMμM %

Q: And the “Mean Antagonism Volume (n = 3)” value?
A: −0.14 nM^2 %, μM^2 % or nMμM %

Q: And the “Mean Synergy Volume (n = 3)” value?
A: 55.6 nM^2 %, μM^2 % or nMμM %

Q: What about the “Synergy Volume, Result 1” value of the same compound?
A: 78.8 nM^2 %, μM^2 % or nMμM %

Q: And the “Synergy Volume, Result 2” value?
A: 28.3 nM^2 %, μM^2 % or nMμM %

Q: And the “Synergy Volume, Result 3” value?
A: 59.8 nM^2 %, μM^2 % or nMμM %

Q: And the “Interpretation of Antiviral Results (MacSynergy)” value (“Interpretation” for short)?
A: slightly synergistic

Q: `O=C1Nc2ccc(Cl)cc2C(C#CC2CC2)(C(F)(F)F)O1` (stereo not drawn) [Efavirenz (EFV), 6-chloro-4-cyclopropylethynyl-4-trifluoromethyl-1,4-dihydro-2H3,1-benzoxazin-2-one] was tested. Which “Antagonism Volume, Result 1” value did it give?
A: 0 nM^2 %, μM^2 % or nMμM %

Q: What about the “Antagonism Volume, Result 2” value of the same compound?
A: 0 nM^2 %, μM^2 % or nMμM %

Q: What about the “Antagonism Volume, Result 3” value of the same compound?
A: 0 nM^2 %, μM^2 % or nMμM %

Q: And the “Mean Antagonism Volume (n = 3)” value?
A: 0 nM^2 %, μM^2 % or nMμM %

Q: What about the “Mean Synergy Volume (n = 3)” value of the same compound?
A: 69.8 nM^2 %, μM^2 % or nMμM %

Q: And the “Synergy Volume, Result 1” value?
A: 85.7 nM^2 %, μM^2 % or nMμM %

Q: And the “Synergy Volume, Result 2” value?
A: 80.6 nM^2 %, μM^2 % or nMμM %

Q: And the “Synergy Volume, Result 3” value?
A: 43.2 nM^2 %, μM^2 % or nMμM %

Q: What about the “Interpretation” value of the same compound?
A: slightly synergistic

Q: With enfuvirtide as the compound, how does the “Antagonism Volume, Result 1” value read?
A: 0/0 nM^2 %, μM^2 % or nMμM %

Q: And the “Antagonism Volume, Result 2” value?
A: 0 nM^2 %, μM^2 % or nMμM %

Q: And the “Antagonism Volume, Result 3” value?
A: 0/0 nM^2 %, μM^2 % or nMμM %

Q: And the “Mean Antagonism Volume (n = 3)” value?
A: 0 nM^2 %, μM^2 % or nMμM %

Q: And the “Mean Synergy Volume (n = 3)” value?
A: 1.02 nM^2 %, μM^2 % or nMμM %

Q: What about the “Synergy Volume, Result 1” value of the same compound?
A: 0/0 nM^2 %, μM^2 % or nMμM %

Q: What about the “Synergy Volume, Result 2” value of the same compound?
A: 3.05 nM^2 %, μM^2 % or nMμM %

Q: What about the “Synergy Volume, Result 3” value of the same compound?
A: 0/0 nM^2 %, μM^2 % or nMμM %

Q: Which results are given for `Cc1nnc(C(=O)NC(C)(C)c2nc(C(=O)NCc3ccc(F)cc3)c(O)c(=O)n2C)o1` [Raltegravir (RAL), raltegravir]?
A: Antagonism Volume, Result 1: 0 nM^2 %, μM^2 % or nMμM %; Antagonism Volume, Result 2: 0 nM^2 %, μM^2 % or nMμM %; Antagonism Volume, Result 3: 0 nM^2 %, μM^2 % or nMμM %; Mean Antagonism Volume (n = 3): 0 nM^2 %, μM^2 % or nMμM %; Mean Synergy Volume (n = 3): 34.3 nM^2 %, μM^2 % or nMμM %; Synergy Volume, Result 1: 18.4 nM^2 %, μM^2 % or nMμM %; Synergy Volume, Result 2: 1.92 nM^2 %, μM^2 % or nMμM %; Synergy Volume, Result 3: 82.6 nM^2 %, μM^2 % or nMμM %

Q: What does the source list for `Nc1ccn([C@H]2CC[C@@H](CO)O2)c(=O)n1` [Zalcitabine (ddC), 2′,3′-dideoxycytidine]?
A: Antagonism Volume, Result 1: 0 nM^2 %, μM^2 % or nMμM %; Antagonism Volume, Result 2: 0 nM^2 %, μM^2 % or nMμM %; Antagonism Volume, Result 3: −15.9 nM^2 %, μM^2 % or nMμM %; Mean Antagonism Volume (n = 3): −5.29 nM^2 %, μM^2 % or nMμM %; Mean Synergy Volume (n = 3): 122 nM^2 %, μM^2 % or nMμM %; Synergy Volume, Result 1: 154 nM^2 %, μM^2 % or nMμM %; Synergy Volume, Result 2: 80.0 nM^2 %, μM^2 % or nMμM %; Synergy Volume, Result 3: 131 nM^2 %, μM^2 % or nMμM %; Interpretation of Antiviral Results (MacSynergy): highly synergistic

Q: For `Cc1c(O)cccc1C(=O)N[C@@H](CSc1ccccc1)[C@H](O)CN1C[C@H]2CCCC[C@H]2C[C@H]1C(=O)NC(C)(C)C` [Nelfinavir (NFV), nelfinavir], which “Antagonism Volume, Result 1” value is on record?
A: 0 nM^2 %, μM^2 % or nMμM %

Q: What about the “Antagonism Volume, Result 2” value of the same compound?
A: 0 nM^2 %, μM^2 % or nMμM %

Q: And the “Antagonism Volume, Result 3” value?
A: 0 nM^2 %, μM^2 % or nMμM %

Q: What about the “Mean Antagonism Volume (n = 3)” value of the same compound?
A: 0 nM^2 %, μM^2 % or nMμM %

Q: And the “Mean Synergy Volume (n = 3)” value?
A: 80.9 nM^2 %, μM^2 % or nMμM %

Q: What about the “Synergy Volume, Result 1” value of the same compound?
A: 32.1 nM^2 %, μM^2 % or nMμM %

Q: What about the “Synergy Volume, Result 2” value of the same compound?
A: 85.1 nM^2 %, μM^2 % or nMμM %

Q: And the “Synergy Volume, Result 3” value?
A: 125 nM^2 %, μM^2 % or nMμM %

Q: What about the “Interpretation” value of the same compound?
A: slightly synergistic

Q: For `COC(=O)N[C@H](C(=O)N[C@@H](Cc1ccccc1)[C@@H](O)CN(Cc1ccc(-c2ccccn2)cc1)NC(=O)[C@@H](NC(=O)OC)C(C)(C)C)C(C)(C)C` [Atazanavir (ATV), atazanavir], which “Interpretation” value is on record?
A: slightly synergistic

Q: For `CC(C)CN(C[C@@H](O)[C@H](Cc1ccccc1)NC(=O)O[C@H]1CO[C@H]2OCC[C@H]21)S(=O)(=O)c1ccc(N)cc1` [Darunavir (DRV), darunavir], which “Antagonism Volume, Result 1” value is on record?
A: 0 nM^2 %, μM^2 % or nMμM %

Q: And the “Antagonism Volume, Result 2” value?
A: −2.31 nM^2 %, μM^2 % or nMμM %

Q: And the “Antagonism Volume, Result 3” value?
A: 0 nM^2 %, μM^2 % or nMμM %

Q: What about the “Mean Antagonism Volume (n = 3)” value of the same compound?
A: −0.54 nM^2 %, μM^2 % or nMμM %

Q: What about the “Mean Synergy Volume (n = 3)” value of the same compound?
A: 43.2 nM^2 %, μM^2 % or nMμM %

Q: And the “Synergy Volume, Result 1” value?
A: 109 nM^2 %, μM^2 % or nMμM %

Q: And the “Synergy Volume, Result 2” value?
A: 11.5 nM^2 %, μM^2 % or nMμM %

Q: And the “Synergy Volume, Result 3” value?
A: 9.48 nM^2 %, μM^2 % or nMμM %

Q: `CC(C)CN(C[C@@H](O)[C@H](Cc1ccccc1)NC(=O)O[C@H]1CCOC1)S(=O)(=O)c1ccc(N)cc1` [Amprenavir (APV), amprenavir] was tested. Which “Antagonism Volume, Result 1” value did it give?
A: 0 nM^2 %, μM^2 % or nMμM %

Q: What about the “Antagonism Volume, Result 2” value of the same compound?
A: 0 nM^2 %, μM^2 % or nMμM %

Q: What about the “Antagonism Volume, Result 3” value of the same compound?
A: 0 nM^2 %, μM^2 % or nMμM %

Q: What about the “Mean Antagonism Volume (n = 3)” value of the same compound?
A: 0 nM^2 %, μM^2 % or nMμM %

Q: And the “Mean Synergy Volume (n = 3)” value?
A: 51.4 nM^2 %, μM^2 % or nMμM %

Q: And the “Synergy Volume, Result 1” value?
A: 104 nM^2 %, μM^2 % or nMμM %

Q: And the “Synergy Volume, Result 2” value?
A: 43.1 nM^2 %, μM^2 % or nMμM %

Q: What about the “Synergy Volume, Result 3” value of the same compound?
A: 7.31 nM^2 %, μM^2 % or nMμM %

Q: And the “Interpretation” value?
A: slightly synergistic

Q: `CC(C)(C)NC(=O)[C@@H]1C[C@@H]2CCCC[C@@H]2CN1C[C@@H](O)[C@H](Cc1ccccc1)NC(=O)[C@H](CC(N)=O)NC(=O)c1ccc2ccccc2n1` [Saquinavir (SQV), saquinavir] was tested. Which “Antagonism Volume, Result 1” value did it give?
A: −2.54 nM^2 %, μM^2 % or nMμM %

Q: What about the “Antagonism Volume, Result 2” value of the same compound?
A: −0.81 nM^2 %, μM^2 % or nMμM %

Q: What about the “Antagonism Volume, Result 3” value of the same compound?
A: 0 nM^2 %, μM^2 % or nMμM %

Q: And the “Mean Antagonism Volume (n = 3)” value?
A: −1.12 nM^2 %, μM^2 % or nMμM %

Q: And the “Mean Synergy Volume (n = 3)” value?
A: 45.2 nM^2 %, μM^2 % or nMμM %

Q: What about the “Synergy Volume, Result 1” value of the same compound?
A: 123 nM^2 %, μM^2 % or nMμM %

Q: And the “Synergy Volume, Result 2” value?
A: 8.35 nM^2 %, μM^2 % or nMμM %

Q: What about the “Synergy Volume, Result 3” value of the same compound?
A: 3.93 nM^2 %, μM^2 % or nMμM %

Q: How did the “Antagonism Volume, Result 1” value turn out when `Cc1cc(C#N)cc(C)c1Oc1nc(Nc2ccc(C#N)cc2)nc(N)c1Br` [Etravirine (ETV), etravirine] was run?
A: −0.75 nM^2 %, μM^2 % or nMμM %

Q: What about the “Antagonism Volume, Result 2” value of the same compound?
A: 0 nM^2 %, μM^2 % or nMμM %

Q: And the “Antagonism Volume, Result 3” value?
A: −0.87 nM^2 %, μM^2 % or nMμM %

Q: And the “Mean Antagonism Volume (n = 3)” value?
A: −0.29 nM^2 %, μM^2 % or nMμM %

Q: What about the “Mean Synergy Volume (n = 3)” value of the same compound?
A: 69.0 nM^2 %, μM^2 % or nMμM %

Q: And the “Synergy Volume, Result 1” value?
A: 34.9 nM^2 %, μM^2 % or nMμM %

Q: And the “Synergy Volume, Result 2” value?
A: 106 nM^2 %, μM^2 % or nMμM %

Q: And the “Synergy Volume, Result 3” value?
A: 67.4 nM^2 %, μM^2 % or nMμM %

Q: And the “Interpretation” value?
A: slightly synergistic

Q: Which results are given for `CC(C)(C)NC(=O)[C@@H]1CN(Cc2cccnc2)CCN1C[C@@H](O)C[C@@H](Cc1ccccc1)C(=O)N[C@H]1c2ccccc2C[C@H]1O` [Indinavir (IDV), indinavir]?
A: Antagonism Volume, Result 1: −0.56 nM^2 %, μM^2 % or nMμM %; Antagonism Volume, Result 2: 0 nM^2 %, μM^2 % or nMμM %; Antagonism Volume, Result 3: 0 nM^2 %, μM^2 % or nMμM %; Mean Antagonism Volume (n = 3): −0.19 nM^2 %, μM^2 % or nMμM %; Mean Synergy Volume (n = 3): 53.0 nM^2 %, μM^2 % or nMμM %; Synergy Volume, Result 1: 78.7 nM^2 %, μM^2 % or nMμM %; Synergy Volume, Result 2: 62.7 nM^2 %, μM^2 % or nMμM %; Synergy Volume, Result 3: 17.6 nM^2 %, μM^2 % or nMμM %; Interpretation of Antiviral Results (MacSynergy): slightly synergistic
